Key:
Assay in all cases: relative viability (nuclei count vs DMSO), 5 days (fraction); higher = more cells survive
Calu-6 = system: Calu-6
Procedure, shortened: (§1)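 Five library-drug doses in √10 steps were combined with a fixed anchor-drug dose, or a single drug was given alone, by pin tool to lung cancer cell lines in 1536-well plates the day after seeding. Nuclei were stained and counted after 5 days. Relative viability is the nuclei count in treated wells over that in vehicle wells, taken as the median of duplicate plates.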

NCI-H1703 = system: NCI-H1703
Procedure, shortened: as §1

NCI-H2228 = system: NCI-H2228
Procedure, shortened: as §1

EMC-BAC-2 = system: EMC-BAC-2
Procedure, shortened: as §1

NCI-H2009 = system: NCI-H2009
Procedure, shortened: as §1

EBC-1 = system: EBC-1
Procedure, shortened: as §1

NCI-H1299 = system: NCI-H1299
Procedure, shortened: as §1

ABC-1 = system: ABC-1
Procedure, shortened: as §1

IA-LM = system: IA-LM
Procedure, shortened: as §1

A549 = system: A549
Procedure, shortened: as §1

Structure (SMILES)	relative viability (Calu-6; first compound 0.02 µM)	relative viability (Calu-6; first compound 0.2 µM)	relative viability (Calu-6; first compound 0.6325 µM)	relative viability (Calu-6; first compound 2 µM)	relative viability (NCI-H1703; first compound 0.02 µM)	relative viability (NCI-H1703; first compound 0.2 µM)	relative viability (NCI-H1703; first compound 0.6325 µM)	relative viability (NCI-H1703; first compound 2 µM)	relative viability (NCI-H2228; first compound 0.02 µM)	relative viability (NCI-H2228; first compound 0.2 µM)	relative viability (NCI-H2228; first compound 0.6325 µM)	relative viability (NCI-H2228; first compound 2 µM)	relative viability (EMC-BAC-2; first compound 0.02 µM)	relative viability (EMC-BAC-2; first compound 0.2 µM)	relative viability (EMC-BAC-2; first compound 0.6325 µM)	relative viability (EMC-BAC-2; first compound 2 µM)	relative viability (NCI-H2009; first compound 0.02 µM)	relative viability (NCI-H2009; first compound 0.2 µM)	relative viability (NCI-H2009; first compound 0.6325 µM)	relative viability (NCI-H2009; first compound 2 µM)	relative viability (EBC-1; first compound 0.02 µM)	relative viability (EBC-1; first compound 0.2 µM)	relative viability (EBC-1; first compound 0.6325 µM)	relative viability (EBC-1; first compound 2 µM)	relative viability (NCI-H1299; first compound 0.02 µM)	relative viability (NCI-H1299; first compound 0.2 µM)	relative viability (NCI-H1299; first compound 0.6325 µM)	relative viability (NCI-H1299; first compound 2 µM)	relative viability (ABC-1; first compound 0.02 µM)	relative viability (ABC-1; first compound 0.2 µM)	relative viability (ABC-1; first compound 0.6325 µM)	relative viability (ABC-1; first compound 2 µM)	relative viability (IA-LM; first compound 0.02 µM)	relative viability (IA-LM; first compound 0.2 µM)	relative viability (IA-LM; first compound 0.6325 µM)	relative viability (IA-LM; first compound 2 µM)	relative viability (A549; first compound 0.02 µM)	relative viability (A549; first compound 0.2 µM)	relative viability (A549; first compound 0.6325 µM)	relative viability (A549; first compound 2 µM)
CN1CCN(CCOc2cc(OC3CCOCC3)c3c(Nc4c(Cl)ccc5c4OCO5)ncnc3c2)CC1 [Saracatinib] + CS(=O)(=O)CCNCc1ccc(-c2ccc3ncnc(Nc4ccc(OCc5cccc(F)c5)c(Cl)c4)c3c2)o1 [Lapatinib] (partner 2 µM)	1.08	0.839	0.913	0.745	0.873	1.02	0.376	0.283	1.35	0.995	1.07	0.674	0.91	0.792	0.945	0.761	0.992	0.889	1.06	0.772	0.199	0.23	0.197	0.212	0.982	1.02	1	0.941	1.16	0.921	1.08	0.921	0.803	0.799	1.19	0.799	1.06	1.01	0.812	0.791
CN1CCN(CCOc2cc(OC3CCOCC3)c3c(Nc4c(Cl)ccc5c4OCO5)ncnc3c2)CC1 [Saracatinib] + CS(=O)(=O)N1CCN(Cc2cc3nc(-c4cccc5[nH]ncc45)nc(N4CCOCC4)c3s2)CC1 [Pictilisib] (partner 1 µM)	0.858	0.645	0.702	0.613	0.228	0.242	0.181	0.203	0.385	0.206	0.244	0.207	0.546	0.507	0.497	0.34	0.759	0.465	0.644	0.4	0.445	0.397	0.387	0.429	0.69	0.528	0.387	0.256	0.695	0.938	0.85	0.822	0.33	0.445	0.515	0.37	0.491	0.412	0.515	0.399
CN1CCN(CCOc2cc(OC3CCOCC3)c3c(Nc4c(Cl)ccc5c4OCO5)ncnc3c2)CC1 [Saracatinib] + C[C@@H](Oc1cc(-c2cnn(C3CCNCC3)c2)cnc1N)c1c(Cl)ccc(F)c1Cl [Crizotinib] (partner 1 µM)	0.769	0.594	0.662	0.526	0.553	0.633	0.23	0.0951	0.477	0.326	0.306	0.213	0.701	0.72	0.652	0.463	1.03	0.756	0.896	0.691	0.174	0.198	0.188	0.181	0.942	0.948	0.985	0.781	1.1	1.06	0.918	0.705	1.07	1.08	1.24	0.738	0.74	0.738	0.649	0.549

Source: the supplement of paper PMC10307832
